According to PMC6792352, “Limited Chemical Structural Diversity Found to Modulate Thyroid Hormone Receptor in the Tox21 Chemical Library” (Environmental Health Perspectives, 2019):
Counter-ions that a name gives are not always drawn. Like-named read-outs stand apart in the source and are kept apart here.

Assays:
in vitro = conditions: rat, gh3-tre-luc cells, AC50 (uM) modified / 1000
GH3-TRE-Luc cell line = conditions: read-out: AC50 (uM) modified / 1000, viability, 1 nM T3 present, 24 h

Question: Which results are given for `O=Cc1ccccc1C=O` [1,2-Benzenedicarboxaldehyde]?
Answer: CC50 at 24 h (in vitro): 4.89 µM; CC50 (GH3-TRE-Luc cell line; Tox21_110001=Tox21_112347): 8.06 µM

Question: What does the source list for `Nc1ccc(N)cc1` [1,4-Benzenediamine]?
Answer: CC50 at 24 h (in vitro): 68.8 µM; CC50 (GH3-TRE-Luc cell line; Tox21_110001=Tox21_302943): 68.9 µM

Question: For `C=CC(=O)OCCCCCCOC(=O)C=C` [1,6-Hexanediol diacrylate], which CC50 at 24 h (in vitro) is on record?
Answer: 57.6 µM

Question: What about the CC50 (GH3-TRE-Luc cell line; Tox21_110001=Tox21_303168) of the same molecule?
Answer: 46.1 µM

Question: Which CC50 at 24 h (in vitro) does the source give for `O=[N+]([O-])c1ccc(Cl)c([N+](=O)[O-])c1` [1-Chloro-2,4-dinitrobenzene] here?
Answer: 12.5 µM

Question: And the CC50 (GH3-TRE-Luc cell line; Tox21_110001=Tox21_302802)?
Answer: 10.1 µM

Question: What does the source list for `O=C(Nc1ccccc1SSc1ccccc1NC(=O)c1ccccc1)c1ccccc1` [2,2'-Dibenzoylaminodiphenyl disulfide]?
Answer: CC50 at 24 h (in vitro): 89.8 µM; CC50 (GH3-TRE-Luc cell line; Tox21_110001=Tox21_303466): 72.6 µM

Question: What does the source list for `Cc1cc(Cc2cc(C)cc(C(C)(C)C)c2O)c(O)c(C(C)(C)C)c1` [2,2'-Methylenebis(4-methyl-6-tert-butylphenol)]?
Answer: CC50 at 24 h (in vitro): 11.5 µM; CC50 (GH3-TRE-Luc cell line; Tox21_110001=Tox21_302923): 10.1 µM

Question: Which CC50 at 24 h (in vitro) does the source give for `Oc1ccc(C(c2ccc(O)cc2)C(Cl)(Cl)Cl)cc1` [2,2-Bis(4-hydroxyphenyl)-1,1,1-trichloroethane] here?
Answer: 74.8 µM

Question: What about the CC50 (GH3-TRE-Luc cell line; Tox21_110001=Tox21_300656) of the same molecule?
Answer: 55.1 µM

Question: Which results are given for `Oc1c(Cl)cc(Cl)c(Cl)c1Cl` [2,3,4,6-Tetrachlorophenol]?
Answer: CC50 at 24 h (in vitro): 71.8 µM; CC50 (GH3-TRE-Luc cell line; Tox21_110001=Tox21_302932): 64.3 µM

Question: For `CC(C)(C)c1cc(C(C)(C)C)c(O)c(C(C)(C)C)c1` [2,4,6-Tris(tert-butyl)phenol], which CC50 at 24 h (in vitro) is on record?
Answer: 27.4 µM

Question: And the CC50 (GH3-TRE-Luc cell line; Tox21_110001=Tox21_300121)?
Answer: 28.2 µM

Question: Which CC50 at 24 h (in vitro) does the source give for `CC(C)(C)c1ccc(O)c(C(C)(C)C)c1` [2,4-Di-tert-butylphenol] here?
Answer: 47.6 µM

Question: And the CC50 (GH3-TRE-Luc cell line; Tox21_110001=Tox21_300114)?
Answer: 29.7 µM

Question: Which CC50 at 24 h (in vitro) does the source give for `CCC(C)(C)c1ccc(O)c(C(C)(C)CC)c1` [2,4-Di-tert-pentylphenol] here?
Answer: 10.5 µM

Question: What about the CC50 (GH3-TRE-Luc cell line; Tox21_110001=Tox21_300090) of the same molecule?
Answer: 12.2 µM

Question: What does the source list for `Nc1ccc(O)c(N)c1` [2,4-Diaminophenol dihydrochloride]?
Answer: CC50 at 24 h (in vitro): 41.5 µM; CC50 (GH3-TRE-Luc cell line; Tox21_110001=Tox21_303017): 45.5 µM

Question: With `CCc1cc(C(C)(C)C)c(O)c(C(C)(C)C)c1` [2,6-Di-tert-butyl-4-ethylphenol] as the molecule, how does the CC50 at 24 h (in vitro) read?
Answer: 72.5 µM

Question: And the CC50 (GH3-TRE-Luc cell line; Tox21_110001=Tox21_303397)?
Answer: 85.5 µM

Question: For `c1ccc2sc(SSN3CCOCC3)nc2c1` [2-(Morpholin-4-yldithio)-1,3-benzothiazole], which CC50 at 24 h (in vitro) is on record?
Answer: 18.6 µM

Question: And the CC50 (GH3-TRE-Luc cell line; Tox21_110001=Tox21_303278)?
Answer: 35 µM

Question: Which CC50 at 24 h (in vitro) does the source give for `Nc1cc([N+](=O)[O-])ccc1O` [2-Amino-4-nitrophenol] here?
Answer: 62.3 µM

Question: What about the CC50 (GH3-TRE-Luc cell line; Tox21_110001=Tox21_302788) of the same molecule?
Answer: 48.2 µM

Question: With `Cc1cc(N=Nc2ccccc2C)ccc1N` [2-Amino-5-azotoluene] as the molecule, how does the CC50 at 24 h (in vitro) read?
Answer: 50.9 µM

Question: And the CC50 (GH3-TRE-Luc cell line; Tox21_110001=Tox21_300300)?
Answer: 40.4 µM

Question: With `CCCCC(CC)COC(=O)c1ccc(O)cc1` (centres unmarked) [2-Ethylhexylparaben] as the molecule, how does the CC50 at 24 h (in vitro) read?
Answer: 32.1 µM

Question: What about the CC50 (GH3-TRE-Luc cell line; Tox21_110001=Tox21_302793) of the same molecule?
Answer: 41.7 µM

Question: What does the source list for `Cc1ccc(O)c(C(C)(C)C)c1` [2-tert-Butyl-4-methylphenol]?
Answer: CC50 at 24 h (in vitro): 89.6 µM; CC50 (GH3-TRE-Luc cell line; Tox21_110001=Tox21_303003): 69.9 µM

Question: What does the source list for `Cc1ccc(C(C)(C)C)c(O)c1` [2-tert-Butyl-5-methylphenol]?
Answer: CC50 at 24 h (in vitro): 81 µM; CC50 (GH3-TRE-Luc cell line; Tox21_110001=Tox21_300486): 47.9 µM

Question: With `CC(C)(c1cc(Br)c(O)c(Br)c1)c1cc(Br)c(O)c(Br)c1` [3,3',5,5'-Tetrabromobisphenol A] as the molecule, how does the CC50 at 24 h (in vitro) read?
Answer: 39.3 µM

Question: And the CC50 (GH3-TRE-Luc cell line; Tox21_110001=Tox21_201981)?
Answer: 43.3 µM

Question: What about the CC50 (GH3-TRE-Luc cell line; Tox21_110001=Tox21_300561) of the same molecule?
Answer: 38.6 µM

Question: With `COc1cc(-c2ccc(N)c(OC)c2)ccc1N` [3,3'-Dimethoxybenzidine dihydrochloride] as the molecule, how does the CC50 at 24 h (in vitro) read?
Answer: > 90 µM

Question: And the CC50 (GH3-TRE-Luc cell line; Tox21_110001=Tox21_300315)?
Answer: 65 µM

Question: Which results are given for `Cc1ccc(N)c(N)c1` [3,4-Diaminotoluene]?
Answer: CC50 at 24 h (in vitro): 32.1 µM; CC50 (GH3-TRE-Luc cell line; Tox21_110001=Tox21_300507): 18.4 µM

Question: What does the source list for `CC(C)CC(C)(c1ccc(O)cc1)c1ccc(O)cc1` [4,4'-(4-Methylpentane-2,2-diyl)diphenol]?
Answer: CC50 at 24 h (in vitro): 41.6 µM; CC50 (GH3-TRE-Luc cell line; Tox21_110001=Tox21_303608): 34 µM

Question: Which results are given for `C1CN(SSN2CCOCC2)CCO1` [4,4'-Dithiodimorpholine]?
Answer: CC50 at 24 h (in vitro): 69.4 µM; CC50 (GH3-TRE-Luc cell line; Tox21_110001=Tox21_303110): 49.5 µM

Question: Which CC50 (GH3-TRE-Luc cell line; Tox21_110001=Tox21_111173) does the source give for `C=C1C(CCl)(CCl)C2(Cl)C(Cl)C(Cl)C1(Cl)C2(Cl)Cl` (centres unmarked) [Toxaphene] here?
Answer: 5.43 µM

Question: And the CC50 (GH3-TRE-Luc cell line; Tox21_110001=Tox21_200912)?
Answer: 23.5 µM

Question: With `Oc1cc(Cl)ccc1Oc1ccc(Cl)cc1Cl` [Triclosan] as the molecule, how does the CC50 (GH3-TRE-Luc cell line; Tox21_110001=Tox21_111648) read?
Answer: 50.4 µM

Question: What about the CC50 (GH3-TRE-Luc cell line; Tox21_110001=Tox21_400079) of the same molecule?
Answer: 13.3 µM

Question: Which CC50 (GH3-TRE-Luc cell line; Tox21_110001=Tox21_302696) does the source give for `CCCCCCCCCCCC(=O)O` [Triethanolamine Laurate] here?
Answer: 85.4 µM

Question: Which CC50 (GH3-TRE-Luc cell line; Tox21_110001=Tox21_200809) does the source give for `CCCCCCCCCCCCCC[P+](CCCCCC)(CCCCCC)CCCCCC` [Trihexyltetradecylphosphonium bromide] here?
Answer: 5.4 µM

Question: Which CC50 (GH3-TRE-Luc cell line; Tox21_110001=Tox21_202613) does the source give for `CCCCCCCCCCCCCC[P+](CCCCCC)(CCCCCC)CCCCCC` [Trihexyltetradecylphosphonium dicyanamide] here?
Answer: 2.76 µM

Question: Which CC50 (GH3-TRE-Luc cell line; Tox21_110001=Tox21_200750) does the source give for `CCCCCCCCCCCCCC[P+](CCCCCC)(CCCCCC)CCCCCC` [Trihexyltetradecylphosphonium hexafluorophosphate] here?
Answer: 5.33 µM

Question: With `COc1ccc(CCN(C)CCCC(C#N)(c2ccc(OC)c(OC)c2)C(C)C)cc1OC` (centres unmarked) [Verapamil] as the molecule, how does the CC50 (GH3-TRE-Luc cell line; Tox21_110001=Tox21_110300) read?
Answer: 23.2 µM

Question: With `CC[C@]1(O)C[C@@H]2CN(CCc3c([nH]c4ccccc34)[C@@](C(=O)OC)(c3cc4c(cc3OC)N(C)[C@H]3[C@@](O)(C(=O)OC)[C@H](OC(C)=O)[C@]5(CC)C=CCN6CC[C@]43[C@@H]65)C2)C1` [Vinblastine sulfate] as the molecule, how does the CC50 (GH3-TRE-Luc cell line; Tox21_110001=Tox21_111498) read?
Answer: 0.185 µM

Question: And the CC50 (GH3-TRE-Luc cell line; Tox21_110001=Tox21_112735)?
Answer: 2.29 µM

Question: For `c1ccc(C(O[C@@H]2CCCN(CCc3ccc4c(c3)OCO4)C2)c2ccccc2)cc1` [Zamifenacin], which CC50 (GH3-TRE-Luc cell line; Tox21_110001=Tox21_300210) is on record?
Answer: 40 µM

Question: Which CC50 (GH3-TRE-Luc cell line; Tox21_110001=Tox21_113525) does the source give for `O=C1Cc2cc(CCN3CCN(c4nsc5ccccc45)CC3)c(Cl)cc2N1` [Ziprasidone] here?
Answer: 15.3 µM

Question: For `Cc1c(C)c2c(c(C)c1OC(=O)CCC(=O)O)CC[C@@](C)(CCC[C@H](C)CCC[C@H](C)CCCC(C)C)O2` [d-alpha-Tocopheryl succinate], which CC50 (GH3-TRE-Luc cell line; Tox21_110001=Tox21_200568) is on record?
Answer: 20 µM

Question: With `CC[C@H](c1ccc(O)cc1)[C@@H](CC)c1ccc(O)cc1` [meso-Hexestrol] as the molecule, how does the CC50 (GH3-TRE-Luc cell line; Tox21_110001=Tox21_110377) read?
Answer: 13.9 µM

Question: And the CC50 (GH3-TRE-Luc cell line; Tox21_110001=Tox21_301456)?
Answer: 47 µM

Question: With `CC(C)(C)c1cc(O)ccc1O` [tert-Butylhydroquinone] as the molecule, how does the CC50 (GH3-TRE-Luc cell line; Tox21_110001=Tox21_110007) read?
Answer: 7.35 µM

Question: What about the CC50 (GH3-TRE-Luc cell line; Tox21_110001=Tox21_202309) of the same molecule?
Answer: 64.9 µM

Question: And the CC50 (GH3-TRE-Luc cell line; Tox21_110001=Tox21_300081)?
Answer: 37.7 µM
